The values below come from ChEMBL document CHEMBL1125176, “Synthesis of structural analogues of lyngbyatoxin A and their evaluation as activators of protein kinase C” (J Med Chem, 1991).

Each structure is given as a SMILES string.

The target of the test is Protein kinase C (PKC) (Homo sapiens) (UniProt O94806+P41743+P17252+P05129+Q05655+P05771+Q05513+Q02156+P24723+Q15139+Q04759). In words: Activation of partially purified HeLa cell protein kinase C, 32P incorporation into calf thymus histone(III-S).

For `CC(C)[C@H]1C(=O)N[C@@H](CO)Cc2c[nH]c3c(CCCCO[Si](C)(C)C(C)(C)C)ccc(c23)N1C`, the Activity (pM min-1 (mg of protein)-1) was found to be 403. Under `CCCCCCc1ccc2c3c(c[nH]c13)C[C@@H](CO)NC(=O)[C@H](C(C)C)N2C` stands 606. As for `CC(C)[C@H]1C(=O)N[C@H](CO)Cc2c[nH]c3c(CCCCO)ccc(c23)N1C`, the figure is 256; as for `CC(C)=CCCCc1ccc2c3c(c[nH]c13)C[C@H](CO)NC(=O)[C@H](C(C)C)N2C`, 415; as for `CC(C)[C@H]1C(=O)N[C@H](CO)Cc2c[nH]c3c(CCCCO[Si](C)(C)C(C)(C)C)ccc(c23)N1C`, 703. As for `CC(C)[C@H]1C(=O)N[C@@H](CO)Cc2c[nH]c3c(CCCCO)ccc(c23)N1C`, the figure is 163. `CC(C)[C@H]1C(=O)N[C@H](CO)Cc2c[nH]c3cccc(c23)N1C` returned an Activity (pM min-1 (mg of protein)-1) of 454.

Regarding `CCCCCCCCCCCCCC(=O)O[C@@H]1[C@@H](C)[C@@]2(O)[C@@H](C=C(CO)C[C@]3(O)C(=O)C(C)=C[C@@H]23)[C@@H]2C(C)(C)[C@]12OC(C)=O`, the Activity (pM min-1 (mg of protein)-1) came to 899. Under `CC(C)=CCCCc1ccc2c3c(c[nH]c13)C[C@@H](CO)NC(=O)[C@H](C(C)C)N2C` stands 763.
